Measured values from EP0884054B9, “Fixed-dose association of an angiotensin-converting enzyme inhibitor and of a calcium channel antagonist for the treatment of cardiovascular illnesses” (Procter & Gamble Pharmaceuticals S.A.R.L., priority 1997, dated 1998).
Where a name gives a salt, the structure may show the parent alone. Read-outs that look alike come from different tables or passages of the source.

Assays:
[1] = test system: rat experimentally hypertense by aortic coarctation; assay: Antihypertensive activity in the rat experimentally hypertense by aortic coarctation (conscious animal); type: in vivo; conditions: for systolic arterial pressure / distolic arterial pressure / diastolic arterial pressure: mean(SD)
Procedure: The antihypertensive activity of the association of enalapril and nitrendipine was tested in comparison with each one of the isolated components in an experimental model of hypertension by arterial coarction in the rat. Measurement of the arterial pressure was carried out with the animal conscious. The doses tested were as follows: • Enalapril maleate 1 mg/kg (p.o.) • Nitrendipine 3 mg/kg (p.o.) • Enalapril maleate and Nitrendipine (1 and 3) mg/kg (p.o.) • Enalapril maleate and Nitrendipine (0.5 and 1.5) mg/kg (p.o.) The control group received the carrier (CMC Carboxymethylcellulose 1% en distilled water), the administration volume being […] (p.o.).

[2] = test system: patients with congestive heart failure; conditions: long-term treatment (over one year), cited from earlier work
[3] = test system: male patients with slight-moderate AHT; assay: Placebo-controlled open clinical trial in slight-moderate AHT; type: in vivo; conditions: single-drug treatment, 5 mg once a day for 2 weeks (9 patients nitrendipine, 11 patients enalapril)
Procedure: A placebo-controlled, open clinical trial was carried out in male patients with slight-moderate AHT, defined as systolic blood pressure values (SAT) between 165 and 144 mmHg and diastolic blood pressure values (DAT) between 95 and 105 mmHg, taken in decubitus position after 5 minutes' rest.

[4] = at 10 minutes; stable formulation of enalapril sodium salt according to EP-A-0545194; cited from earlier work
[5] = 1 mg/kg p.o., 0 minutes following administration
[6] = 1 mg/kg p.o., 5 minutes following administration
[7] = 1 mg/kg p.o., 15 minutes following administration
[8] = 1 mg/kg p.o., 30 minutes following administration
[9] = 1 mg/kg p.o., 45 minutes following administration
[10] = 1 mg/kg p.o., 60 minutes following administration
[11] = 1 mg/kg p.o., 120 minutes following administration
[12] = 1 mg/kg p.o., 240 minutes following administration
[13] = 1 mg/kg p.o., 360 minutes following administration
[14] = 1 mg/kg p.o., 540 minutes following administration
[15] = 3 mg/kg p.o., 0 minutes following administration
[16] = 3 mg/kg p.o., 5 minutes following administration
[17] = 3 mg/kg p.o., 15 minutes following administration
[18] = 3 mg/kg p.o., 30 minutes following administration
[19] = 3 mg/kg p.o., 45 minutes following administration
[20] = 3 mg/kg p.o., 60 minutes following administration
[21] = 3 mg/kg p.o., 120 minutes following administration
[22] = 3 mg/kg p.o., 240 minutes following administration
[23] = 3 mg/kg p.o., 360 minutes following administration
[24] = 3 mg/kg p.o., 540 minutes following administration

CCOC(=O)[C@H](CCc1ccccc1)N[C@@H](C)C(=O)N1CCC[C@H]1C(=O)O [Enalapril maleate, 1-(N-((S)-1-ethoxycarbonyl-3-fenilpropyl) -L-alanil)-L-prolina]
systolic arterial pressure [1, 5]: 168(6) | systolic arterial pressure [1, 6]: 165(5) | systolic arterial pressure [1, 7]: 144(2) | systolic arterial pressure [1, 8]: 139(3) | systolic arterial pressure [1, 9]: 139(6) | systolic arterial pressure [1, 10]: 134(1) | systolic arterial pressure [1, 11]: 141(3) | systolic arterial pressure [1, 12]: 146(1) | systolic arterial pressure [1, 13]: 148(4) | systolic arterial pressure [1, 14]: 165(6) | antihypertensive effect ([1]; oral administration, 1 mg/kg): moderate antihypertensive effect | antihypertensive effect sustained following administration ([1]; oral administration, 1 mg/kg): up to 6 hours

CCOC(=O)[C@H](CCc1ccccc1)N[C@@H](C)C(=O)N1CCC[C@H]1C(=O)O [enalapril, 1-(N-((S)-1-ethoxycarbonyl-3-fenilpropyl) -L-alanil)-L-prolina]
improvement of mortality and morbidity rates ([2]; severe heart failure (CONSENSUS)): approximately 30% | improvement of mortality and morbidity rates ([2]; slight and moderate heart failure (SOLVD)): approximately 15% | blood pressure normalized, number of patients [3]: 2 patients | dissolution rate of enalapril [4]: 100% | distolic arterial pressure [1, 5]: 138(5) | distolic arterial pressure [1, 6]: 138(3) | distolic arterial pressure [1, 7]: 123(1) | distolic arterial pressure [1, 8]: 116(4) | distolic arterial pressure [1, 9]: 117(1) | distolic arterial pressure [1, 10]: 109(1) | distolic arterial pressure [1, 11]: 116(5) | distolic arterial pressure [1, 12]: 116(3) | distolic arterial pressure [1, 13]: 117(2) | distolic arterial pressure [1, 14]: 126(4)

CCOC(=O)C1=C(C)NC(C)=C(C(=O)OC)C1c1cccc([N+](=O)[O-])c1 (racemic) [Nitrendipine, ethyl and methyl ester of the acid 1,4-dihydro-2,6-dimethyl-4-(3-nitrophenyl)-3,5-pyridindicarboxylic]
blood pressure normalized, number of patients [3]: 1 patients | diastolic arterial pressure [1, 15]: 136(5) | systolic arterial pressure [1, 15]: 172(6) | diastolic arterial pressure [1, 16]: 105(1) | systolic arterial pressure [1, 16]: 119(2) | diastolic arterial pressure [1, 17]: 83(4) | systolic arterial pressure [1, 17]: 117(6) | diastolic arterial pressure [1, 18]: 84(2) | systolic arterial pressure [1, 18]: 112(4) | diastolic arterial pressure [1, 19]: 88(5) | systolic arterial pressure [1, 19]: 115(3) | diastolic arterial pressure [1, 20]: 92(1) | systolic arterial pressure [1, 20]: 119(6) | diastolic arterial pressure [1, 21]: 113(4) | systolic arterial pressure [1, 21]: 141(5) | diastolic arterial pressure [1, 22]: 128(3) | systolic arterial pressure [1, 22]: 163(2) | diastolic arterial pressure [1, 23]: 132(2) | systolic arterial pressure [1, 23]: 169(1) | diastolic arterial pressure [1, 24]: 131(5) | systolic arterial pressure [1, 24]: 160(5) | return to basal values following administration ([1]; oral administration, 3 mg/kg): 4 h
